For assay [1], the target named is T1, Potassium voltage-gated channel subfamily A member 3 (Homo sapiens, UniProt P22001). More on the design: species or system Blood.
Assay [2] addresses T1, Potassium voltage-gated channel subfamily A member 3. Briefly: cell-based. On the set-up: species or system Blood.
Assay [3] has the same target. The assay is classed as cell-based, CHO-K1.

pIC50: −log10 of the molar value. Bridge positions count the residues as written; N and C are the ends. Square brackets hold non-standard residues; d marks the D form. Peptide text beside a SMILES is read from it. 1Nal = N[C@@H](Cc1cccc2ccccc12)C(=O)O

Drawing on ChEMBL document CHEMBL3608278 (J Med Chem, 2015), this text covers IC50 for 8 compounds.

T1 sequence (P22001 whole entry): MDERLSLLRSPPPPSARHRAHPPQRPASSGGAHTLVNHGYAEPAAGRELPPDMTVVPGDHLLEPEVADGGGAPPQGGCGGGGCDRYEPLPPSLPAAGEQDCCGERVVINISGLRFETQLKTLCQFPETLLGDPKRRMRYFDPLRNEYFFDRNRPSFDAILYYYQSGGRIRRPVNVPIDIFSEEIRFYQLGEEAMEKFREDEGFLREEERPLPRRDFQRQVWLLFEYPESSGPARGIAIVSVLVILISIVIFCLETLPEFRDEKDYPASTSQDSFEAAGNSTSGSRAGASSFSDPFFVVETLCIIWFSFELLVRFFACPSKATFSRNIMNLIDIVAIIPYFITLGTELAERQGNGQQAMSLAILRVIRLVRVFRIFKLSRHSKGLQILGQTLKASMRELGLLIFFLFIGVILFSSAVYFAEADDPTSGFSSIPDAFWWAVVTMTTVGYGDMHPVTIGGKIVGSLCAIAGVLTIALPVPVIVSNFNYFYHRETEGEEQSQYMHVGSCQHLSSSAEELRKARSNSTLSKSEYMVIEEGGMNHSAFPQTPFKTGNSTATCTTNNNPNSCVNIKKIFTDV

What is called pIC50 is the IC50 on a negative log10 scale, so that one unit is a factor of ten. Low readings indicate a high IC50, high ones a low IC50. With `CC[C@H](C)[C@@H]1NC(=O)[C@@H](NC(=O)[C@H](CO)NC(=O)[C@@H](N)CCCNC(=N)N)CSSC[C@@H](C(=O)O)NC(=O)[C@H](CCCCN)NC(=O)CNC(=O)[C@@H]2CSSC[C@@H]3NC(=O)[C@H](CCC(N)=O)NC(=O)[C@H](Cc4ccccc4)NC(=O)[C@H](C)NC(=O)[C@H]([C@@H](C)O)NC(=O)[C@H](CSSC[C@H](NC(=O)[C@H](Cc4ccccc4)NC(=O)[C@H](CO)NC(=O)[C@H](CC(C)C)NC(=O)[C@H](CCCNC(=N)N)NC(=O)[C@H](Cc4ccc(O)cc4)NC(=O)[C@H](CCCCN)NC(=O)[C@H](CCSC)NC(=O)[C@H](CO)NC(=O)[C@H](Cc4cnc[nH]4)NC(=O)[C@H](CCCCN)NC3=O)C(=O)N[C@@H](CCCNC(=N)N)C(=O)N[C@@H](CCCCN)C(=O)N[C@@H]([C@@H](C)O)C(=O)N2)NC(=O)[C@H](CCCNC(=N)N)NC(=O)[C@H](CO)NC(=O)[C@H](CCCCN)NC(=O)[C@@H]2CCCN2C(=O)[C@H]([C@@H](C)CC)NC(=O)[C@H]([C@@H](C)O)NC(=O)[C@H](CC(=O)O)NC1=O`, the figures for the pIC50 in assay [1], in assay [2] and in assay [3] were 9.87, 10.17 and 9.82, respectively.
The like results for `CC[C@H](C)[C@@H]1NC(=O)[C@@H](NC(=O)[C@H](CO)NC(=O)[C@@H](N)CCCNC(=N)N)CSSC[C@@H](C(=O)O)NC(=O)[C@H]([C@@H](C)O)NC(=O)CNC(=O)[C@@H]2CSSC[C@@H]3NC(=O)[C@H](CCC(N)=O)NC(=O)[C@H](Cc4cccc5ccccc45)NC(=O)[C@H](C)NC(=O)[C@H]([C@@H](C)O)NC(=O)[C@H](CSSC[C@H](NC(=O)[C@H](Cc4ccccc4)NC(=O)[C@H](CO)NC(=O)[C@H](CC(C)C)NC(=O)[C@H](CCCNC(=N)N)NC(=O)[C@H](Cc4ccc(O)cc4)NC(=O)[C@H](CCCCN)NC(=O)[C@H](CCSC)NC(=O)[C@H](CO)NC(=O)[C@H](C)NC(=O)[C@H](CCCCN)NC3=O)C(=O)N[C@@H](CCCNC(=N)N)C(=O)N[C@@H](CCCCN)C(=O)N[C@@H]([C@@H](C)O)C(=O)N2)NC(=O)[C@H](CCCNC(=N)N)NC(=O)[C@H](CO)NC(=O)[C@H](CCCCN)NC(=O)[C@@H]2CCCN2C(=O)[C@H]([C@@H](C)CC)NC(=O)[C@H]([C@@H](C)O)NC(=O)[C@H](CC(=O)O)NC1=O` (H-RSCIDTIPKSRCTA[1Nal]QCKASMKYRLSFCRKTCGTC-OH; disulfide 3-35, 12-28, 17-32) were, in that order, 9.54, 9.74 and 10.14.
For the compound `CC[C@H](C)[C@@H]1NC(=O)[C@@H](NC(=O)[C@H](CO)NC(=O)[C@@H](N)CCCNC(=N)N)CSSC[C@@H](C(=O)O)NC(=O)[C@H]([C@@H](C)O)NC(=O)CNC(=O)[C@@H]2CSSC[C@@H]3NC(=O)[C@H](CCC(N)=O)NC(=O)[C@H](Cc4ccccc4)NC(=O)[C@H](C)NC(=O)[C@H]([C@@H](C)O)NC(=O)[C@H](CSSC[C@H](NC(=O)[C@H](Cc4ccccc4)NC(=O)[C@H](CCCCN)NC(=O)[C@H](CC(C)C)NC(=O)[C@H](CCCNC(=N)N)NC(=O)[C@H](Cc4ccc(O)cc4)NC(=O)[C@H](CCCCN)NC(=O)[C@H](CCSC)NC(=O)[C@H](CO)NC(=O)[C@H](Cc4cnc[nH]4)NC(=O)[C@H](CCCCN)NC3=O)C(=O)N[C@@H](CCCNC(=N)N)C(=O)N[C@@H](CCCCN)C(=O)N[C@@H]([C@@H](C)O)C(=O)N2)NC(=O)[C@H](CCCNC(=N)N)NC(=O)[C@H](CO)NC(=O)[C@H](CCCCN)NC(=O)[C@@H]2CCCN2C(=O)[C@H]([C@@H](C)CC)NC(=O)[C@H]([C@@H](C)O)NC(=O)[C@H](CC(=O)O)NC1=O`, the values for the pIC50 in assay [1], in assay [2] and in assay [3] were 9.30, 9.56 and 9.91, respectively.
On to `CC[C@H](C)[C@@H]1NC(=O)[C@@H](NC(=O)[C@H](CO)NC(=O)[C@@H](N)CCCNC(=N)N)CSSC[C@@H](C(=O)O)NC(=O)[C@H]([C@@H](C)O)NC(=O)CNC(=O)[C@@H]2CSSC[C@@H]3NC(=O)[C@H](CCC(N)=O)NC(=O)[C@H](Cc4ccccc4)NC(=O)[C@H](C)NC(=O)[C@H](CCC(=O)O)NC(=O)[C@H](CSSC[C@H](NC(=O)[C@H](Cc4ccccc4)NC(=O)[C@H](CO)NC(=O)[C@H](CC(C)C)NC(=O)[C@H](CCCNC(=N)N)NC(=O)[C@H](Cc4ccc(O)cc4)NC(=O)[C@H](CCCCN)NC(=O)[C@H](CCSC)NC(=O)[C@H](CO)NC(=O)[C@H](Cc4cnc[nH]4)NC(=O)[C@H](CCCCN)NC3=O)C(=O)N[C@@H](CCCNC(=N)N)C(=O)N[C@@H](CCCCN)C(=O)N[C@@H]([C@@H](C)O)C(=O)N2)NC(=O)[C@H](CCCNC(=N)N)NC(=O)[C@H](CO)NC(=O)[C@H](CCCCN)NC(=O)[C@@H]2CCCN2C(=O)[C@H]([C@@H](C)CC)NC(=O)[C@H]([C@@H](C)O)NC(=O)[C@H](CC(=O)O)NC1=O`, for which the pIC50 in assay [1] is 8.96; in assay [2], 9.11; in assay [3], 9.82.
As for `CC[C@H](C)[C@@H]1NC(=O)[C@@H](NC(=O)[C@H](CCCCN)NC(=O)[C@@H](N)CCCNC(=N)N)CSSC[C@@H](C(=O)O)NC(=O)[C@H]([C@@H](C)O)NC(=O)CNC(=O)[C@@H]2CSSC[C@@H]3NC(=O)[C@H](CCC(N)=O)NC(=O)[C@H](Cc4ccccc4)NC(=O)[C@H](C)NC(=O)[C@H]([C@@H](C)O)NC(=O)[C@H](CSSC[C@H](NC(=O)[C@H](Cc4ccccc4)NC(=O)[C@H](CO)NC(=O)[C@H](CC(C)C)NC(=O)[C@H](CCCNC(=N)N)NC(=O)[C@H](Cc4ccc(O)cc4)NC(=O)[C@H](CCCCN)NC(=O)[C@H](CCSC)NC(=O)[C@H](CO)NC(=O)[C@H](Cc4cnc[nH]4)NC(=O)[C@H](CCCCN)NC3=O)C(=O)N[C@@H](CCCNC(=N)N)C(=O)N[C@@H](CCCCN)C(=O)N[C@@H]([C@@H](C)O)C(=O)N2)NC(=O)[C@H](CCCNC(=N)N)NC(=O)[C@H](CO)NC(=O)[C@H](CCCCN)NC(=O)[C@@H]2CCCN2C(=O)[C@H]([C@@H](C)CC)NC(=O)[C@H]([C@@H](C)O)NC(=O)[C@H](CC(=O)O)NC1=O`, the pIC50 was 10.03 in assay [1], 10.00 in assay [2] and 9.84 in assay [3].
Regarding `CC[C@H](C)[C@@H]1NC(=O)[C@@H](NC(=O)[C@H](CO)NC(=O)[C@@H](N)CCCNC(=N)N)CSSC[C@@H](C(=O)O)NC(=O)[C@H]([C@@H](C)O)NC(=O)CNC(=O)[C@@H]2CSSC[C@@H]3NC(=O)[C@H](CCC(N)=O)NC(=O)[C@H](Cc4ccccc4)NC(=O)[C@H](C)NC(=O)[C@H]([C@@H](C)O)NC(=O)[C@H](CSSC[C@H](NC(=O)[C@H](Cc4ccccc4)NC(=O)[C@H](CO)NC(=O)[C@H](CC(C)C)NC(=O)[C@H](CCCNC(=N)N)NC(=O)[C@H](Cc4ccc(O)cc4)NC(=O)[C@H](CCCCN)NC(=O)[C@H](CCSC)NC(=O)[C@H](CO)NC(=O)[C@H](Cc4c[nH]cn4)NC(=O)[C@H](CCCCN)NC3=O)C(=O)N[C@@H](CCCNC(=N)N)C(=O)N[C@@H](CCCCN)C(=O)N[C@@H](CCCNC(=N)N)C(=O)N2)NC(=O)[C@H](CCCNC(=N)N)NC(=O)[C@H](CO)NC(=O)[C@H](CCCCN)NC(=O)[C@@H]2CCCN2C(=O)[C@H]([C@@H](C)CC)NC(=O)[C@H]([C@@H](C)O)NC(=O)[C@H](CC(=O)O)NC1=O`, the pIC50 in assay [1] is 7.41; in assay [2] it was 7.95; in assay [3], < 8.48.
For `CC[C@H](C)[C@@H]1NC(=O)[C@@H](NC(=O)[C@H](CO)NC(=O)[C@@H](N)CCCNC(=N)N)CSSC[C@@H](C(=O)O)NC(=O)[C@H]([C@@H](C)O)NC(=O)CNC(=O)[C@@H]2CSSC[C@@H]3NC(=O)[C@H](CCC(N)=O)NC(=O)[C@H](Cc4ccccc4)NC(=O)[C@H](CCCCN)NC(=O)[C@H]([C@@H](C)O)NC(=O)[C@H](CSSC[C@H](NC(=O)[C@H](Cc4ccccc4)NC(=O)[C@H](CO)NC(=O)[C@H](CC(C)C)NC(=O)[C@H](CCCNC(=N)N)NC(=O)[C@H](Cc4ccc(O)cc4)NC(=O)[C@H](CCCCN)NC(=O)[C@H](CCSC)NC(=O)[C@H](CO)NC(=O)[C@H](Cc4cnc[nH]4)NC(=O)[C@H](CCCCN)NC3=O)C(=O)N[C@@H](CCCNC(=N)N)C(=O)N[C@@H](CCCCN)C(=O)N[C@@H]([C@@H](C)O)C(=O)N2)NC(=O)[C@H](CCCNC(=N)N)NC(=O)[C@H](CO)NC(=O)[C@H](CCCCN)NC(=O)[C@@H]2CCCN2C(=O)[C@H]([C@@H](C)CC)NC(=O)[C@H]([C@@H](C)O)NC(=O)[C@H](Cc2cccc3ccccc23)NC1=O` (H-RSCI[1Nal]TIPKSRCTKFQCKHSMKYRLSFCRKTCGTC-OH; disulfide 3-35, 12-28, 17-32), the pIC50 was 9.70 in assay [1], 10.12 in assay [2] and 10.14 in assay [3].
As to `CC[C@H](C)[C@@H]1NC(=O)[C@@H](NC(=O)[C@H](CO)NC(=O)[C@@H](N)CCCNC(=N)N)CSSC[C@@H](C(=O)O)NC(=O)[C@H]([C@@H](C)O)NC(=O)CNC(=O)[C@@H]2CSSC[C@@H]3NC(=O)[C@H](CCC(N)=O)NC(=O)[C@H](Cc4ccccc4)NC(=O)[C@H](C)NC(=O)[C@H]([C@@H](C)O)NC(=O)[C@H](CSSC[C@H](NC(=O)[C@H](Cc4ccccc4)NC(=O)[C@H](CO)NC(=O)[C@H](CC(C)C)NC(=O)[C@H](CCCNC(=N)N)NC(=O)[C@H](Cc4ccc(O)cc4)NC(=O)[C@H](CCCCN)NC(=O)[C@H](CCSC)NC(=O)[C@H](CO)NC(=O)[C@H](Cc4cnc[nH]4)NC(=O)[C@H](CCC(=O)O)NC3=O)C(=O)N[C@@H](CCCNC(=N)N)C(=O)N[C@@H](CCCCN)C(=O)N[C@@H]([C@@H](C)O)C(=O)N2)NC(=O)[C@H](CCCNC(=N)N)NC(=O)[C@H](CO)NC(=O)[C@H](CCCCN)NC(=O)[C@@H]2CCCN2C(=O)[C@H]([C@@H](C)CC)NC(=O)[C@H]([C@@H](C)O)NC(=O)[C@H](CC(=O)O)NC1=O`, the pIC50 in assay [1] was 10.08; in assay [2] it was 10.33; in assay [3], 9.92.
